What was measured:
human SGLT2 = biological target: T1, human SGLT2 (Homo sapiens, UniProt P31639); assay: Inhibition test of sodium-dependent sugar uptake in CHO-k1 cells stably expressing human SGLT2; format: cell-based; details: for SGLT2 % inhibition at 100 nM: sugar uptake inhibition rate at 100 nM test compound vs control group; for IC50: CHO-k1 cells expressing human SGLT2, [14C]methyl α-D-glucopyranoside uptake, 37° C., an hour
T1 construct: expressed in transfected cells; host or cells: CHO-k1
T1 sequence (P31639 1-672): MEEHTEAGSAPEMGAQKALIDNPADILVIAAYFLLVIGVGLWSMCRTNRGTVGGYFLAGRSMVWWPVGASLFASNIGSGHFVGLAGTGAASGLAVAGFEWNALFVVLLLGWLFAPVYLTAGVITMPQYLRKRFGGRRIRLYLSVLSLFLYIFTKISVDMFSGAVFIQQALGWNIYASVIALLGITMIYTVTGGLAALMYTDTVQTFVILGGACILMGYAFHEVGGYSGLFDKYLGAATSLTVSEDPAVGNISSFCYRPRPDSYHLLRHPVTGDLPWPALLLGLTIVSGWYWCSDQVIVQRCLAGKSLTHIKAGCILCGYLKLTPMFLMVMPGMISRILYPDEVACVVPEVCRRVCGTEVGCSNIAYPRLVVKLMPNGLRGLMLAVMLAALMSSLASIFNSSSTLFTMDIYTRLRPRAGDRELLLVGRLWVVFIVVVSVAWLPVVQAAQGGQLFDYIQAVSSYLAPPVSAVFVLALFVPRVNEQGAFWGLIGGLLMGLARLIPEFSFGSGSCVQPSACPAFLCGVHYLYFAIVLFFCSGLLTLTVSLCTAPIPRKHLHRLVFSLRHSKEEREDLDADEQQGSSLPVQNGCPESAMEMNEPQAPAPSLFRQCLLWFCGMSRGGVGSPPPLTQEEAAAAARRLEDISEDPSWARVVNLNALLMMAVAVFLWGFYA
Procedure: (§1) An SGLT1 sequence (NM_000343) was reverse-transcripted from human small intestinal mRNA, then amplified, and then introduced into pCMV-tag5A from Stratagene Corporation. An SGLT2 sequence (NM_003041) was prepared from human nephric mRNA as with the above method, and then introduced into pcDNA3.1+hygro from Invitrogen Corporation. Each cloned sequence was confirmed to be identical with the reported sequence.
(§2) The human SGLT1 and human SGLT2 expression vectors were transfected into CHO-k1 cells by using Lipofectamine 2000 from Invitrogen Corporation. The SGLT expression cells were incubated in the presence of Geneticin (SGLT1) or Hygromycin B (SGLT2) at a 500 μg/mL concentration to select resistant strains, and specific activity of sugar uptake was obtained as an indicator by the following system.
(§3) Cells stably expressing human SGLT1 and human SGLT2 were used for the inhibition test of sodium-dependent glucose uptake.
(§4) The cells were incubated in a pretreatment buffer A (200 μL for SGLT1, and 2 mL for SGLT2) for 20 minutes. The pretreatment buffer was removed and an uptake buffer B (75 μL for SGLT1, and 200 μL for SGLT2) containing a test compound was added to conduct an uptake reaction at 37° C. for 30 minutes (SGLT1) or an hour (SGLT2). After the reaction, the cells were washed with a washing buffer C twice (200 μL for SGLT1, and 2 mL for SGLT2), and then dissolved in a 0.2 M solution of NaOH (75 μL for SGLT1, and 400 μL for SGLT2). After a liquid scintilater was added thereto and mixed sufficiently, radioactivity was measured with microBETA (SGLT1) or a liquid scintillation counter from Beckman Coulter, Inc (SGLT2). As a control group, an uptake buffer containing no test compound was prepared. In addition, as the basic uptake buffer, an uptake buffer B containing choline chloride instead of NaCl was prepared. • A pretreatment buffer A: 140 mM choline chloride, 2 mM KCl, 1 mM CaCl2, 1 mM MgCl2, 10 mM HEPES/5 mM Tris, pH 7.4. • An uptake buffer B: 1 mM of methyl α-D-glucopyranoside containing [^14C]methyl α-D-glucopyranoside, 140 mM NaCl, 2 mM KCl, 1 mM CaCl2, 1 mM MgCl2, 10 mM HEPES/5 mM Tris, pH 7.4. • A washing buffer C: 10 mM methyl α-D-glucopyranoside, 140 mM choline chloride, 2 mM KCl, 1 mM CaCl2, 1 mM MgCl2, 10 mM HEPES/5 mM Tris, pH 7.4.
(§5) In order to obtain IC50 values, test compounds having adequate 6 concentrations were used and the test compound concentrations (IC50 values) at which sugar uptake is inhibited by 50% in comparison with the amount of sugar uptake (100%) of the control group were calculated.
(§6) In addition, the sugar uptake inhibition rates at 100 nM concentration of the test compound in comparison with the control group are shown in Table 7.

human SGLT1 = biological target: T2, human SGLT1 (Homo sapiens, UniProt P13866); assay: Inhibition test of sodium-dependent sugar uptake in CHO-k1 cells stably expressing human SGLT1; format: cell-based; details: for SGLT1 % inhibition at 100 nM: sugar uptake inhibition rate at 100 nM test compound vs control group; for IC50: CHO-k1 cells expressing human SGLT1, [14C]methyl α-D-glucopyranoside uptake, 37° C., 30 minutes
T2 construct: expressed in transfected cells; host or cells: CHO-k1
T2 sequence (P13866 1-664): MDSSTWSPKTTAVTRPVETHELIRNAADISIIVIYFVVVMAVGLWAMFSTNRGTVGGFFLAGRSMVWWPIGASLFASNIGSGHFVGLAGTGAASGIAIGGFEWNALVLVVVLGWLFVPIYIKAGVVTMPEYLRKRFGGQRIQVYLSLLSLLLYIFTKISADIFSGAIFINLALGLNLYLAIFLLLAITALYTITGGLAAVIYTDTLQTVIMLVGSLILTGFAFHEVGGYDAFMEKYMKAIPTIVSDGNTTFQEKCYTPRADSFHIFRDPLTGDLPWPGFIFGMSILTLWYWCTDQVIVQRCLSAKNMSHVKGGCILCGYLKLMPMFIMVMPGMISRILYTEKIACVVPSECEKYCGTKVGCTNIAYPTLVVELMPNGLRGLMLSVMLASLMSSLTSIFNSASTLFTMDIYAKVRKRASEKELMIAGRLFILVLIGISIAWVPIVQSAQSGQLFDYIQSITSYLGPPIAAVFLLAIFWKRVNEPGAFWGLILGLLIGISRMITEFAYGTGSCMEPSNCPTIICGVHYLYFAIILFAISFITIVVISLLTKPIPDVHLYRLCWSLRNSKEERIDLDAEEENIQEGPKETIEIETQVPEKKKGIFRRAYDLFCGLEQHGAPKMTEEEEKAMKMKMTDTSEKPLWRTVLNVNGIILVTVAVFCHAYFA
Procedure: as §1, §2, §3, §4, §5, §6

SGLT2 % inhibition at 100 nM (human SGLT2) [%] | SGLT1 % inhibition at 100 nM (human SGLT1) [%] | IC50 (human SGLT2) [nM] | IC50 (human SGLT1) [nM] | SMILES
79 | 71 | – | – | Cc1cc(O)c(C2OC(CO)C(O)C(O)C2O)cc1Cc1ccc(CCNC(=O)NC2CC3CCC2C3)cc1 (mixture of isomers) [Compound 124]
90 | 90 | – | – | Cc1cc(O)c(C2OC(CO)C(O)C(O)C2O)cc1Cc1ccc(CCNC(=O)NC2CCN(Cc3ccccc3)C2)cc1 (mixture of isomers) [Compound 132]
79 | 71 | – | – | Cc1cc(O)c(C2OC(CO)C(O)C(O)C2O)cc1Cc1ccc(CCNC(=O)Nc2ccccc2C(O)c2ccccc2)cc1 (mixture of isomers) [Compound 137]
80 | 66 | – | – | Cc1cc(O)c(C2OC(CO)C(O)C(O)C2O)cc1Cc1ccc(CCNC(=O)N2CCC3CCCCC3C2)cc1 (mixture of isomers) [Compound 143]
– | – | 21 | 49 | O=C(NCCc1ccc(Cc2cc([C@@H]3O[C@H](CO)[C@@H](O)[C@H](O)[C@H]3O)c(O)cc2Cl)cc1)NC(CO)(CO)CO [Compound 14, (1S)-1,5-anhydro-1-[4-chloro-5-[4-[2-[[[2-hydroxy-1,1-bis(hydroxymethyl)ethyl]aminocarbonyl]amino]ethyl]benzyl]-2-hydroxyphenyl]-D-glucitol]
– | – | 25 | 79 | O=C(NCCc1ccc(Cc2cc([C@@H]3O[C@H](CO)[C@@H](O)[C@H](O)[C@H]3O)ccc2Cl)cc1)NC(CO)(CO)CO [Compound 17, (1S)-1,5-anhydro-1-[4-chloro-3-[4-[2-[[[2-hydroxy-1,1-bis(hydroxymethyl)ethyl]aminocarbonyl]amino]ethyl]benzyl]phenyl]-D-glucitol]
– | – | 101 | 302 | Cc1cc(O)c([C@@H]2O[C@H](CO)[C@@H](O)[C@H](O)[C@H]2O)cc1Cc1ccc(OCCNC(=O)NC(CO)(CO)CO)cc1 [Compound 19]
– | – | 34 | 75 | COC(=O)CNC(=O)NCCc1ccc(Cc2cc([C@@H]3O[C@H](CO)[C@@H](O)[C@H](O)[C@H]3O)c(O)cc2C)cc1 [Compound 21]
– | – | 12 | 37 | COC(=O)[C@H](Cc1ccccc1)NC(=O)NCCc1ccc(Cc2cc([C@@H]3O[C@H](CO)[C@@H](O)[C@H](O)[C@H]3O)c(O)cc2C)cc1 [Compound 22]
– | – | 19 | 19 | Cc1cc(O)c([C@@H]2O[C@H](CO)[C@@H](O)[C@H](O)[C@H]2O)cc1Cc1ccc(CCNC(=O)NC2(CO)CCCC2)cc1 [Compound 23]
– | – | 25 | 37 | Cc1cc(O)c([C@@H]2O[C@H](CO)[C@@H](O)[C@H](O)[C@H]2O)cc1Cc1ccc(CCNC(=O)N[C@@H](CC(C)C)C(N)=O)cc1 [Compound 24]
– | – | 20 | 64 | CCCN(CC1CC1)C(=O)NCCc1ccc(Cc2cc([C@@H]3O[C@H](CO)[C@@H](O)[C@H](O)[C@H]3O)c(O)cc2C)cc1 [Compound 25]
– | – | 15 | 52 | Cc1cc(O)c([C@@H]2O[C@H](CO)[C@@H](O)[C@H](O)[C@H]2O)cc1Cc1ccc(CCNC(=O)NCc2cccs2)cc1 [Compound 26]
– | – | 15 | 54 | Cc1cc(O)c([C@@H]2O[C@H](CO)[C@@H](O)[C@H](O)[C@H]2O)cc1Cc1ccc(CCNC(=O)NCc2cc(Cl)cc(Cl)c2)cc1 [Compound 27]
– | – | 18 | 64 | Cc1cc(O)c([C@@H]2O[C@H](CO)[C@@H](O)[C@H](O)[C@H]2O)cc1Cc1ccc(CCNC(=O)NCC2CCCCC2)cc1 [Compound 28]
– | – | 17 | 75 | CSCCNC(=O)NCCc1ccc(Cc2cc([C@@H]3O[C@H](CO)[C@@H](O)[C@H](O)[C@H]3O)c(O)cc2C)cc1 [Compound 29]
– | – | 13 | 111 | Cc1cc(O)c([C@@H]2O[C@H](CO)[C@@H](O)[C@H](O)[C@H]2O)cc1Cc1ccc(CCNC(=O)NCCN2CCCC2)cc1 [Compound 30]
